# Test results from US9481654B2, “Compositions and methods for inhibition of the JAK pathway” (Rigel Pharmaceuticals, Inc., priority 2006, dated 2016).
# Structures can show the parent of a compound that is named as a salt.
# Test system: IL-4 stimulated CD23 upregulation in human Ramos B cells (JAK-1/JAK-3, Stat-6)
# Test: Assay for Ramos B-Cell Line Stimulated with IL-4 (CD23 upregulation, FACS)
# Type: cell-based
# Excerpt: One means of assaying for such inhibition is detection of the effect of the 2,4-pyrimidinediamine compounds on the upregulation of downstream gene products. In the Ramos/IL4 assay, B-cells are stimulated with the cytokine Interleukin-4 (IL-4) leading to the activation of the JAK/Stat pathway through phosphorylation of the JAK family kinases, JAK1 and JAK3, which in turn phosphorylate and activate the transcription factor Stat-6. […] To study the effect of inhibitors (e.g., the 2,4-substituted pyrimindinediamine compounds described herein) on the JAK1 and JAK3 kinases, human Ramos B cells are stimulated with human IL-4. 20 to 24 hours post stimulation, cells are stained for upregulation of CD23 and analyzed using flow cytometry (FACS).
# B-cells stimulated with cytokine Interleukin-4 (IL-4) activate the JAK/Stat pathway through phosphorylation of the JAK family kinases, JAK-1 and JAK-3, which in turn phosphorylate and activate the transcription factor Stat-6. […] To study the effect of inhibitors on the JAK family kinases, human Ramos B cells are stimulated with human IL-4.
# Cells were maintained at a density of 3.5×10^5. The day before the experiment, Ramos B-cells were diluted to 3.5×10^5 cells/mL to ensure that they were in a logarithmic growth phase.
# Cells were spun down and suspended in RPMI with 5% serum. 5×10^4 cells were used per point in a 96-well tissue culture plate. Cells were pre-incubated with compound or DMSO (Sigma-Aldrich, St. Louis, Mo., Cat No. D2650) vehicle control for 1 hour in a 37° C. incubator. Cells were then stimulated with IL-4 (Peprotech Inc., Rocky Hill, N.J., Cat No. 200-04) for a final concentration of 50 units/mL for 20-24 hours. […] Detection was performed using a BD LSR I System Flow Cytometer, purchased from Becton Dickinson Biosciences of San Jose, Calif.
# [1] = Table III Example 3, sodium salt
Structure (SMILES),IC50 (Table III Example 3),IC50 [1]
"CCC(=O)NS(=O)(=O)c1cccc(Nc2ncc(F)c(Nc3ccc(CNS(=O)(=O)C4CC4)cc3)n2)c1 [Compound I-57, N4-(4-cyclopropylsulfonylaminomethyl)phenyl-5-fluoro-N2-(3-propionylaminosulfonyl)phenyl-2,4-pyrimidinediamine]",12300 nM,–
"CCC(=O)NS(=O)(=O)c1cccc(Nc2ncc(F)c(Nc3ccc(CN(C(=O)CC)S(=O)(=O)C4CC4)cc3)n2)c1 [Compound I-58, N4-[4-(N-cyclopropylsulfonyl-N-propionyl)aminomethyl]phenyl-5-fluoro-N2-(3-propionylaminosulfonyl)phenyl-2,4-pyrimidinediamine]",11100 nM,–
"CCC(=O)NS(=O)(=O)c1cc(Nc2ncc(F)c(Nc3ccc(CNS(=O)(=O)C4CC4)cc3)n2)ccc1C [Compound I-59, N4-(4-cyclopropylsulfonylaminomethyl)phenyl-5-fluoro-N2-(4-methyl-3-propionylaminosulfonyl)phenyl-2,4-pyrimidinediamine]",6500 nM,–
"CCC(=O)NS(=O)(=O)c1cc(Nc2ncc(F)c(Nc3ccc(CN(C(=O)CC)S(=O)(=O)C4CC4)cc3)n2)ccc1C [Compound I-60, N4-[4-(N-cyclopropylsulfonyl-N-propionyl)aminomethyl]phenyl-5-fluoro-N2-(4-methyl-3-propionylaminosulfonyl)phenyl-2,4-pyrimidinediamine]",7080 nM,–
"CCC(=O)NS(=O)(=O)c1cccc(Nc2ncc(F)c(Nc3ccc(CNS(=O)(=O)C4CC4)cc3)n2)c1 [Compound I-61, N4-(4-cyclopropylsulfonylaminomethyl)phenyl-5-fluoro-N2-(3-propionylaminosulfonyl)phenyl-2,4-pyrimidinediamine sodium salt]",–,18900 nM
"CCC(=O)NS(=O)(=O)c1cccc(Nc2ncc(F)c(Nc3ccc(CN(C(=O)CC)S(=O)(=O)C4CC4)cc3)n2)c1 [Compound I-62, N4-[4-(N-cyclopropylsulfonyl-N-propionyl)aminomethyl]phenyl-5-fluoro-N2-(3-propionylaminosulfonyl)phenyl-2,4-pyrimidinediamine sodium salt]",–,10700 nM
"CCC(=O)NS(=O)(=O)c1cc(Nc2ncc(F)c(Nc3ccc(CNS(=O)(=O)C4CC4)cc3)n2)ccc1C [Compound I-63, N4-(4-cyclopropylsulfonylaminomethyl)phenyl-5-fluoro-N2-(4-methyl-3-propionylaminosulfonyl)phenyl-2,4-pyrimidinediamine sodium salt]",–,9450 nM
"CCC(=O)NS(=O)(=O)c1cc(Nc2ncc(F)c(Nc3ccc(CN(C(=O)CC)S(=O)(=O)C4CC4)cc3)n2)ccc1C [Compound I-64, N4-[4-(N-cyclopropylsulfonyl-N-propionyl)aminomethyl]phenyl-5-fluoro-N2-(4-methyl-3-propionylaminosulfonyl)phenyl-2,4-pyrimidinediamine sodium salt]",–,4270 nM
"CCC(=O)NS(=O)(=O)c1ccc(Nc2ncc(C)c(Nc3ccc(CN(C(=O)CC)S(=O)(=O)C4CC4)cc3)n2)cc1 [Compound I-77, N4-[4-(N-cyclopropylsulfonyl-N-propionyl)aminomethyl]phenyl-5-methyl-N2-(4-propionylaminosulfonyl)phenyl-2,4-pyrimidinediamine]",1230 nM,–
"CCC(=O)NS(=O)(=O)c1ccc(Nc2ncc(C)c(Nc3ccc(CNS(=O)(=O)C4CC4)cc3)n2)cc1 [Compound I-88, N4-(4-cyclopropylsulfonylaminomethyl)phenyl-5-methyl-N2-(4-propionylaminosulfonyl)phenyl-2,4-pyrimidinediamine sodium salt]",–,59.9 nM
"CCC(=O)NS(=O)(=O)c1ccc(Nc2ncc(C)c(Nc3ccc(CN(C(=O)CC)S(=O)(=O)CC)cc3)n2)cc1 [Compound I-91, N4-[4-(N-ethylsulfonyl-N-propionyl)aminomethyl]phenyl-5-methyl-N2-(4-propionylaminosulfonyl)phenyl-2,4-pyrimidinediamine]",1290 nM,–
"CCC(=O)NS(=O)(=O)c1ccc(Nc2ncc(C)c(Nc3ccc(CN(C(=O)CC)S(=O)(=O)CC)cc3)n2)cc1 [Compound I-92, N4-[4-(N-ethylsulfonyl-N-propionyl)aminomethyl]phenyl-5-methyl-N2-(4-propionylaminosulfonyl)phenyl-2,4-pyrimidinediamine sodium salt]",–,960 nM
"CCC(=O)NS(=O)(=O)c1cccc(Nc2ncc(C)c(Nc3cccc(CN(C(=O)CC)S(=O)(=O)C4CC4)c3)n2)c1 [Compound I-93, N4-[3-(N-cyclopropylsulfonyl-N-propionyl)aminomethyl]phenyl-5-methyl-N2-(3-propionylaminosulfonyl)phenyl-2,4-pyrimidinediamine]",2810 nM,–
"CCC(=O)NS(=O)(=O)c1cccc(Nc2ncc(C)c(Nc3cccc(CN(C(=O)CC)S(=O)(=O)C4CC4)c3)n2)c1 [Compound I-94, N4-[3-(N-cyclopropylsulfonyl-N-propionyl)aminomethyl]phenyl-5-methyl-N2-(3-propionylaminosulfonyl)phenyl-2,4-pyrimidinediamine sodium salt]",–,2500 nM
"CCOC(=O)N(CC)S(=O)(=O)c1cccc(Nc2ncc(C)c(Nc3cccc(CNS(=O)(=O)C4CC4)c3)n2)c1 [Compound I-130, N4-(3-cyclopropylsulfonylaminomethyl)phenyl-N2-[3-(N-ethoxycarbonyl-N-ethyl)aminosulfonyl]phenyl-5-methyl-2,4-pyrimidinediamine]",544 nM,–
"Cc1cnc(Nc2cccc(S(=O)(=O)NC(=O)CN)c2)nc1Nc1cccc(CNS(=O)(=O)C2CC2)c1 [Compound I-131, N2-[3-N-(2-amino-1-oxoethyl)aminosulfonyl]phenyl-N4-(3-cyclopropylsulfonylaminomethyl)phenyl-5-methyl-2,4-pyrimidinediamine]",557 nM,–
"Cc1cnc(Nc2cccc(S(=O)(=O)NC(=O)[C@@H](N)Cc3ccccc3)c2)nc1Nc1cccc(CNS(=O)(=O)C2CC2)c1 [Compound I-132, N2-[3-N-(L-Phe)aminosulfonyl]phenyl-N4-(3-cyclopropylsulfonylaminomethyl)phenyl-5-methyl-2,4-pyrimidinediamine hydrogen chloride salt]",594 nM,–
"Cc1cnc(Nc2cccc(S(=O)(=O)NC(=O)[C@@H](N)Cc3ccccc3)c2)nc1Nc1cccc(CNS(=O)(=O)C2CC2)c1 [Compound I-134, N2-[3-N-(L-Phe)aminosulfonyl]phenyl-N4-(3-cyclopropylsulfonylaminomethyl)phenyl-5-methyl-2,4-pyrimidinediamine]",751 nM,–
"Cc1cnc(Nc2cccc(S(=O)(=O)NC(=O)[C@H](Cc3ccccc3)NC(=O)OCc3ccccc3)c2)nc1Nc1cccc(CNS(=O)(=O)C2CC2)c1 [Compound I-135, N2-[3-N-(Cbz-L-Phe)aminosulfonyl]phenyl-N4-(3-cyclopropylsulfonylaminomethyl)phenyl-5-methyl-2,4-pyrimidinediamine sodium salt]",–,1000 nM
"CCC(=O)NS(=O)(=O)c1cccc(Nc2ncc(C)c(Nc3cccc(CNS(=O)(=O)C4CC4)c3)n2)c1 [Compound I-136, N4-(3-cyclopropylsulfonylaminomethyl)phenyl-5-methyl-N2-(3-propionylaminosulfonyl)phenyl-2,4-pyrimidinediamine]",1630 nM,–
"CCC(=O)NS(=O)(=O)c1cccc(Nc2ncc(C)c(Nc3cccc(CNS(=O)(=O)C4CC4)c3)n2)c1 [Compound I-137, N4-(3-cyclopropylsulfonylaminomethyl)phenyl-5-methyl-N2-(3-propionylaminosulfonyl)phenyl-2,4-pyrimidinediamine sodium salt]",–,1910 nM
"Cc1cnc(Nc2cccc(S(=O)(=O)N[C@H](C(=O)O)C(C)C)c2)nc1Nc1cccc(CNS(=O)(=O)C2CC2)c1 [Compound I-138, N2-[3-N-(L-Val)aminosulfonyl]phenyl-N4-(3-cyclopropylsulfonylaminomethyl)phenyl-5-methyl-2,4-pyrimidinediamine]",2380 nM,–
"Cc1cnc(Nc2cccc(S(=O)(=O)NC(=O)[C@H](Cc3ccccc3)NC(=O)OCc3ccccc3)c2)nc1Nc1cccc(CNS(=O)(=O)C2CC2)c1 [Compound I-139, N2-[3-N-(Cbz-L-Phe)aminosulfonyl]phenyl-N4-(3-cyclopropylsulfonylaminomethyl)phenyl-5-methyl-2,4-pyrimidinediamine]",3320 nM,–
"Cc1cnc(Nc2cccc(S(=O)(=O)NC(=O)CNC(=O)OC(C)(C)C)c2)nc1Nc1cccc(CNS(=O)(=O)C2CC2)c1 [Compound I-140, N2-{3-N-[2-(t-butoxycarbonylamino)-1-oxoethyl]aminosulfonyl}phenyl-N4-(3-cyclopropylsulfonylaminomethyl)phenyl-5-methyl-2,4-pyrimidinediamine]",3940 nM,–
"Cc1cnc(Nc2cccc(S(=O)(=O)NC(=O)CNC(=O)OC(C)(C)C)c2)nc1Nc1cccc(CNS(=O)(=O)C2CC2)c1 [Compound I-141, N2-{3-N-[2-(t-butoxycarbonylamino)-1-oxoethyl]aminosulfonyl}phenyl-N4-(3-cyclopropylsulfonylaminomethyl)phenyl-5-methyl-2,4-pyrimidinediamine sodium salt]",–,4710 nM
